One data set has as its system pre-miR-21 WT. In words: Microscale thermophoresis (MST) binding to pre-miR-21 WT. How it is done:
Microscale Thermophoresis (MST) Binding Measurements. MST fluorescent measurements were performed on a Monolith NT.115 system (NanoTemper Technologies) using the fluorescence of a miR-21 hairpin (A+U Bulge): (5′ Cy5-[…]-3′) (SEQ ID NO: 1) or a miR-21 base paired control (5′ Cy5-[…]-3′) (SEQ ID NO: 2) which were purchased from IDT with RNase-free HPLC purification and used without further purification. The RNA (5 nM) was diluted in 1×MST Buffer (8 mM Na2HPO4, 190 mM NaCl, 1 mM EDTA, and 0.05% (v/v) Tween-20) and folded by heating at 60° C. for 5 min, and slowly cooling to room temperature. Compounds 1 and 2 were diluted in 1×MST Buffer, followed by 1:3 dilutions in 1×MST Buffer containing 5 nM RNA. […] Fluorescence measurements (Ex: 605-645 nm, Em: 680-685 nm) were performed at 10% LED and 80% MST power, with a Laser-On time of 30 s and Laser-Off time of 5 s. The data were analyzed by thermophoresis analysis and fitted by the quadratic binding equation in MST analysis software (NanoTemper Technologies). Dissociation constants were then determined by curve fitting using a single-site model. Normalized MST signal was calculated by normalizing the fluorescent signals using the MST data of 1 binding to pre-miR-21 WT with the lowest signal as 0 and the highest fluorescent signal as 1.
(MST reads how a fluorescent partner responds to local heating, with and without ligand.)

A further data set deals with MCF-10a cells. In words: Boyden chamber invasion assay, MCF-10a. The class given is cell-based. The note with it: for effect on invasion induced by overexpression of pre-miR-21: MCF-10a + pre-miR-21. On the procedure: Boyden Chamber Invasion Assay. The MDA-MB-231, MDA-LM2, A375, A549, or MCF-10a cells (5×10^4) were seeded into Hanging Cell Culture Inserts for 24 well plates with uncoated membranes with 8.0 μm pores (Millicell) in serum free growth media. A 3 mg/mL layer (100 μL) of Matrigel (Fisher Scientific: CB40234) diluted with serum free growth media was prepared inside of each membrane. Cells were cultured as described above, with or without compound treatment, and allowed to invade towards complete growth media in the bottom well for 16-24 h before ending the experiment by removing the media in the bottom wells and inserts. The hanging cell culture inserts and bottom wells were washed twice with 1×PBS, gently shaking to mix. Excess liquid and cells inside the insert were removed with cotton swabs, after which 400 μL of 4% paraformaldehyde was placed into the bottom well and incubated for 20 min at room temperature to fix the cells. The wells and inserts were washed twice with 1×PBS and then treated with 400 μL of 0.1% crystal violet solution for 20 min at room temperature to stain the cells. The wells and inserts were washed twice with water, followed by one wash with 1×PBS. Inserts were dried with cotton swabs to remove extra stain and cells inside the insert, then were air-dried, followed by Brightfield microscopic analysis using a Leica DMI3000 B […] fluorescent microscope. Four different fields of view from each captured image were counted for crystal violet stained or unstained cells. Normalized cells invaded was calculated with equation 5 (Eq 5): […]
where stained cells represent cells counted with crystal violet stain observed in the compound treated or vehicle treated samples, respectively.

The test system of data set [1] is Ifng, OAS1, RIG-I, MDA5 mRNAs. In words: RT-qPCR of antiviral innate immune response mRNAs in MDA-MB-231 cells. The class given is cell-based, human. On the procedure: Cell culture compound treatment and transfection. For treatment with compounds, stocks in DMSO or water were diluted in growth media and added to cells for 24-72 h. For transfection of plasmid DNA to overexpress the miR-21 hairpin precursor in pcDNA3.1 (Addgene 21114) or pcDNA3-RNaseL (R. H. Silverman, Cleveland Clinic^24) in 24-well plates, Lipofectamine 2000 was used according to the manufacturer's protocol. After transfection, the medium was removed and replaced with growth medium containing compound prepared as described above. For transfection of a control (Santa Cruz Biotechnology: sc-37007) or RNase L targeting siRNA (Santa Cruz Biotechnology: sc-45965), Lipofectamine RNAiMAX Reagent was used for transfection of oligonucleotides, including 2′-5′ A4, according to the manufacturer's protocol.
Background: In qPCR the cycle at which signal appears reflects the starting amount.

The target in data set [2] is T1, RNase L (Homo sapiens, UniProt Q05823).
T1 sequence (Q05823 1-741): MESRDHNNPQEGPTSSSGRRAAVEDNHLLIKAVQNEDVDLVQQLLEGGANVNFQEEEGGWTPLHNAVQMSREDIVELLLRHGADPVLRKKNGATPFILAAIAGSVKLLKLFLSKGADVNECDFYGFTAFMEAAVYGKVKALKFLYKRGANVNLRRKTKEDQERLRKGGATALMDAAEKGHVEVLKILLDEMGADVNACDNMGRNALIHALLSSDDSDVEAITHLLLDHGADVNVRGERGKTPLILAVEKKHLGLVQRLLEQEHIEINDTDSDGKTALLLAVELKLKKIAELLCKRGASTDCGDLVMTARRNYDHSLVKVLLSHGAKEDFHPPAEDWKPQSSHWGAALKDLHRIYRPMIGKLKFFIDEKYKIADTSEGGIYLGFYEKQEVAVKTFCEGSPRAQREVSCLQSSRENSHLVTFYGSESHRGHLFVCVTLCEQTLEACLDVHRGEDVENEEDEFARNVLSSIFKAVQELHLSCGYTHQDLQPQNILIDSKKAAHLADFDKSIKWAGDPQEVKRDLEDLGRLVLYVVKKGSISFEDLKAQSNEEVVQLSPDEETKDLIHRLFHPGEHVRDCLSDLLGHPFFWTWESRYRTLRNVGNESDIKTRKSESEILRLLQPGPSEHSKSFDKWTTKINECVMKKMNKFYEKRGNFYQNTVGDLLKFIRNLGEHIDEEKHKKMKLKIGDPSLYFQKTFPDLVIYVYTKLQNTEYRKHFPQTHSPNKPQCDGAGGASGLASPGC
In words: In vitro RNase L oligomerization. Format: biochemical. Also on record: GST; made in house. How it is done:
In Vitro RNase L Oligomerization. An aliquot of RNase L (3 μM) in 1×RNase L Buffer was supplemented with 10 mM MgCl2, fresh 7 mM β-mercaptoethanol, and 50 μM of ATP. RNase L oligomerization was performed as previously described^13 using dilutions of 2′-5′ A4 or compounds (2 or 5) prepared in 1×RNase L Buffer. A Western blot (described below) was run to resolve monomeric and oligomeric RNase L populations using RNase L primary antibody (1:5000 dilution; Cell Signaling Technology: D4B4J) overnight at 4° C. in 1×TBST containing 5% nonfat dry milk and 1:10000 anti-rabbit IgG horseradish peroxidase secondary antibody conjugate (Cell Signaling Technology: 7074S) in 1×TBST containing 5% nonfat dry milk for 2 h at room temperature.

The target of data set [3] is T1, RNase L. Briefly: Co-immunoprecipitation of RNase L from treated cells. Also on record: endogenous in cells; host or cells: MDA-MB-231. Format: cell-based.

On to `CCCN(CC(=O)N(CCC)CC(=O)N(CCC)CC(=O)N(CC(N)=O)Cc1cn(CCCNC(=O)CCCOc2ccc(-c3nc4cc(-c5ccc(N6CCN(C)CC6)cc5)ccc4[nH]3)cc2)nn1)C(=O)CNCc1cn(CCCNC(=O)CCCOc2ccc(-c3nc4cc(-c5ccc(N6CCN(C)CC6)cc5)ccc4[nH]3)cc2)nn1` [Compound 2], for which the “enhancement of pre-miR-21 binding over the compound of Formula 1” value with pre-miR-21 WT is on record as 20 fold.

With `CCCN(CC(=O)N(CCC)CC(=O)N(CCC)CC(=O)N(CC(=O)NCCOCCOCCOCCOc1ccc(C=C2SC(Nc3ccccc3)=C(C(=O)OCC)C2=O)cc1O)Cc1cn(CCCNC(=O)CCCOc2ccc(-c3nc4cc(-c5ccc(N6CCN(C)CC6)cc5)ccc4[nH]3)cc2)nn1)C(=O)CN(Cc1cn(CCCNC(=O)CCCOc2ccc(-c3nc4cc(-c5ccc(N6CCN(C)CC6)cc5)ccc4[nH]3)cc2)nn1)C(C)=O` [Compound 5], the “effect on invasion induced by overexpression of pre-miR-21” value in the data set with MCF-10a cells was “decreased invasion”. Also, the “effect on invasion induced by overexpression of pre-miR-21” value in the data set with MCF-10a cells (listed as Formula 5) is “inhibited invasion”. The effect on invasion entry in the data set on MCF-10a cells (MCF-10a, no pre-miR-21 overexpression) is recorded as “no effect on invasion”. For the same compound, the “levels of mRNAs associated with the antiviral innate immune response” value in data set [1] (5 50 nM, 2′-5′ A4 500 nM transfected) is recorded as “No upregulation”. For the same compound, the “modulation of innate immunity biomarkers (RT-qPCR and ELISA)” value in data set [1] (MDA-MB-231) is on record as “No significant changes were observed”. For the same compound, the “oligomerization of RNase L” value at RNase L [2] is reported as “oligomerization of RNase L”. Further, the “pre-miR-21 in the enriched fraction of RNase L co-immunoprecipitation” value on RNase L [3] is recorded as “increased levels of pre-miR-21 in the enriched fraction”. Further, at RNase L [3] (200 nM), the “enrichment of pre-miR-210 in RNase L co-immunoprecipitation” value is “no enrichment of pre-miR-210” and the “increase in pre-miR-21 in RNase L co-immunoprecipitation” value is approximately 3 fold.

Source of the values: patent publication US12617757B2, “Compounds and modules for inhibition of pre-miR-21 and their use in treatment of certain cancers” (University of Florida Research Foundation, Incorporated, priority 2019, dated 2026).
